Laboratory results taken from US20050090527A1, “Combination of H1, H3 and H4 receptor antagonists for treatment of allergic and non-allergic pulmonary inflammation, congestion and allergic rhinitis” (Schering Corporation, priority 2003, published 2005).
Where two headings read alike, the source gives them in different places. Values belong to the molecule of their own block, whether it stands above or below them.

Tests used:
[1] = molecular target: T1, human H4 (H4-HEK293 cells) (Homo sapiens, UniProt Q9H3N8); assay: Membrane binding assay, [3H]-histamine, for H4 binding
T1 construct: expressed in transfected cells
Experimental: (§1) In the present example, the affinities of several compounds for the H1, H3 and H4 receptors was determined by a membrane binding assay.
(§2) Materials. Rat and guinea-pig brains were obtained frozen from Rockland Immunochemicals (Gilbertsville, Pa.). Cell lines expressing recombinant human receptors were generated by using standard transfection techniques. The following radioligands were obtained from Dupont NEN (Boston, Mass.): [^3H]-pyrilamine, 23 Ci/mmol, for H1 binding; [^3H]-N′-methylhistamine, 82 Ci/mmol, for H3 binding and [^3H]-histamine, 20 Ci/mmol, for H4 binding.
(§3) Methods. Recombinant cell lines (i.e., human H1-CHO cells, human H3-HEK293 and human H4-HEK293 cells) were cultured in Dulbecco's modified Eagle's medium/10% fetal bovine serum supplemented with 2 mM glutamine, penicillin (100 U/ml), and streptomycin (100 μg/ml) in a humidified 5% CO2 atmosphere at 37° C. Selection was maintained with 0.5 mg geneticin/ml. Cells were harvested for membrane preparation by aspirating media, replacing it with Hanks' balanced salt solution/5 mM EDTA, and incubating flasks for 10 minutes at 37° C. Cells were pelleted by centrifugation at 1000×g for ten minutes at 4° C.
(§4) Membrane preparation. Membranes were prepared by disrupting cells or tissue in at least ten volumes of ice-cold 50 mM Tris-HCl, pH 7.5 at 25° C., with a Polytron. homogenates were centrifuged ten minutes at 1000×g and the supernatants were then centrifuged for ten minutes at 50,000×g. Pellets from this centrifugation step were resuspended with a Polytron, a sample was taken for protein determination (BCA; Pierce; Rockford, Ill.), and the resuspension was again centrifuged at 50,000×g. Brain membranes were stored as pellets, cell membranes as suspensions of 1 mg protein/ml Tris buffer at −20° C.
(§5) Binding assays. […] Assay mixtures were incubated for 30 minutes at 30° C. in polypropylene, 96-well, deep-well plates then filtered through 0.3% polyethylenimine-soaked GF/B filters. These were washed three times with 1.2 ml of Tris buffer, dried in a microwave oven, impregnated with Meltilex wax scintillant and counted at 40% efficiency in a Betaplate scintillation counter (Wallac). IC50 values were determined by interpolation or by nonlinear, least-squares, curve-fitting with the Prism program (GraphPad Software). Ki values were determined in the manner of Cheng and Prusoff (Cheng, et al., (1973) Biochem. Pharm. 22:3099-3108).

human H1 (H1-CHO cells) = molecular target: T2, human H1 (H1-CHO cells) (Homo sapiens, UniProt P35367); assay: Membrane binding assay, [3H]-pyrilamine, for H1 binding; details: for H1 Ki, value given in %: concentration not given
T2 construct: expressed in transfected cells
Experimental: as §1, §2, §3, §4, §5

[2] = test system: LPS-induced inflammatory response in rat airways; assay: BAL cells recovered from LPS-challenged rats (pulmonary inflammation); type: in vivo; details: for % Inhibition of neutrophilic cellular influx into BAL in response to LPS challenge / % Inhibition of total cellular influx into BAL in response to LPS challenge: 10 mg/kg orally five hours before intratracheal LPS; for Cells (neutrophils or total cells) counted in BAL of LPS-challenged rats compared with rats treated with a blank: oral dosing five hours before LPS
Experimental: Male Sprague-Dawley rats (250-300 g) were anesthetized by inhalation of isoflurane (flow rate 1 ml/min; supplemented with O2). Using a Penn-Centry microspray needle, 0.1 ml of a 100-μg/ml LPS solution in saline was injected into the trachea. Animals not challenged with the LPS solution received 0.1 ml of saline. Animals were placed on a heat pad until they recovered from anesthesia. Afterward, they were returned to their cages and allowed food and water ad libitum. All animals survived these manipulations and no additional interventions were required to ensure their survival. Animals fasted overnight were orally dosed with either the standard PD4 inhibitor and positive-control, SB207499 (c4-cyano-4-(3-cyclopentyloxy-4-methoxy-phenyl)-r-1-cyclohexanecarboxylic acid; Barnette, et al., (1998) J. Pharm. Exp. Ther. 284: 420-426), the compound of formula 17 or vehicle as a negative-control (0.4% methylcellulose) five hours before the LPS challenge.
At appropriate time points after intratracheal challenge with LPS, animals were surgically prepared with a tracheal cannula. Surgery was performed under anesthesia. The airways were flushed with 2×2 ml of 0.9% saline and the two washings pooled. Lavage fluid was centrifuged (350 g, 4° C., 7 minutes), supernatant aspirated, erythrocytes lysed, and pellet washed in phosphate-buffered saline containing 10% heat-inactivated fetal calf serum and 10 μg/ml DNase I. The cell suspension was centrifuged, supernatant aspirated, and pellet resuspended in the same buffer. Total cell counts were performed using a Nebauer hemacytometer. Differential cell counts were conducted on Cytospin-prepared slides stained with Fisher's Leukostat stain. At least 200 cells were assessed per slide and standard morphological criteria were used to define neutrophilic cells.
The total number of cells and the number of neutrophils in the broncheoalveolar lavage (BAL) recovered from rats treated with the compound of formula 17, SB207499 or a blank were counted and compared. Fewer cells (i.e., neutrophils or total cells) were counted in the BAL of LPS-challenged rats treated with the compound of formula 17 or with SB207499 than that of rats treated with a blank. […] The data from these experiments is set forth below in Tables 6 and 7.

[3] = molecular target: T3, human histamine H4 receptor (SP9144) (Homo sapiens, UniProt Q9H3N8); assay: Competition binding versus [3H]-histamine on membranes of SP9144-transfected HEK293 cells
T3 construct: expressed in transfected cells; host or cells: HEK293
Experimental: Membrane preparation. Forty-eight hours after transfection with plasmid containing the sequence for SP9144, HEK293 cells were harvested from T150 flasks by incubating 5 minutes in 5 ml of 5 mM EDTA/Hanks' balanced salt solution followed by repeated pipeting. They were centrifuged 5 minutes at 1000×g. The EDTA/PBS was decanted and an equal volume of ice-cold 50 mM Tris-HCl, pH 7.5, was added and cells were broken up with a Polytron (PT10 tip, setting 5, 30 seconds). Nuclei and unbroken cells were sedimented at 1000×g for 10 minutes and then the supernatant was centrifuged at 50,000×g for 10 minutes. The supernatant was decanted, the pellet was resuspended by Polytron, a sample was taken for protein assay (bicinchoninic acid, Pierce; Rockford, Ill.), and the tissue was again centrifuged at 50,000×g. Pellets were stored frozen at −20° C.
Binding assay. […] Samples were filtered on GF/B filters and washed thrice with 2 ml of cold Tris buffer. Filters were dried in a microwave oven, impregnated with Meltilex wax scintillant, and counted at 45% efficiency.
Competition binding assays.
Curves were fit to the data with Prism (GraphPad Software) nonlinear least-squares curve-fitting program and Ki values were derived from IC50 values according to Cheng and Prusoff (Cheng, et al., (1973) Biochem. Pharm. 22:3099-3108).

[4] = molecular target: T4, human H3 (H3-HEK293 cells) (Homo sapiens, UniProt Q9Y5N1); assay: Membrane binding assay, [3H]-N-methylhistamine, for H3 binding; details: concentration not given
T4 construct: expressed in transfected cells
Experimental: Materials. Rat and guinea-pig brains were obtained frozen from Rockland Immunochemicals (Gilbertsville, Pa.). Cell lines expressing recombinant human receptors were generated by using standard transfection techniques.
Methods. […] Selection was maintained with 0.5 mg geneticin/ml. Cells were harvested for membrane preparation by aspirating media, replacing it with Hanks' balanced salt solution/5 mM EDTA, and incubating flasks for 10 minutes at 37° C. Cells were pelleted by centrifugation at 1000×g for ten minutes at 4° C.
Membrane preparation. […] Pellets from this centrifugation step were resuspended with a Polytron, a sample was taken for protein determination (BCA; Pierce; Rockford, Ill.), and the resuspension was again centrifuged at 50,000×g. Brain membranes were stored as pellets, cell membranes as suspensions of 1 mg protein/ml Tris buffer at −20° C.
as §5, with “Software).” for “Software). Ki values were determined in the manner of Cheng and Prusoff (Cheng, et al., (1973) Biochem. Pharm. 22:3099-3108).”

[5] = membrane binding, [3H]-histamine, read-out: H4 Ki
[6] = 18 nM [3H]-histamine, cells printed in μM

T2 sequence (P35367 whole entry): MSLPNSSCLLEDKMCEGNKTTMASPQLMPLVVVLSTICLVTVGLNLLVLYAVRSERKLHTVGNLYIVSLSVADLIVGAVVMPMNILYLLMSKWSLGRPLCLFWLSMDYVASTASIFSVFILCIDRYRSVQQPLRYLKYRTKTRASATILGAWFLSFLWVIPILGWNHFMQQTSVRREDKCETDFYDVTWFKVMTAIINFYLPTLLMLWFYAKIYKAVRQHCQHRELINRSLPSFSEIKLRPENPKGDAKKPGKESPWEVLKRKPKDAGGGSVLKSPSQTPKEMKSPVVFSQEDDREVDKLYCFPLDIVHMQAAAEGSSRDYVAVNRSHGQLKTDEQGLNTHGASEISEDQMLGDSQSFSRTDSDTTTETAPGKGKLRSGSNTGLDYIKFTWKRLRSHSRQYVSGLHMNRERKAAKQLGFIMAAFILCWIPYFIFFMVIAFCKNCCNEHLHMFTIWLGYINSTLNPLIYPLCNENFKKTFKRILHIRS
T4 sequence (Q9Y5N1 whole entry): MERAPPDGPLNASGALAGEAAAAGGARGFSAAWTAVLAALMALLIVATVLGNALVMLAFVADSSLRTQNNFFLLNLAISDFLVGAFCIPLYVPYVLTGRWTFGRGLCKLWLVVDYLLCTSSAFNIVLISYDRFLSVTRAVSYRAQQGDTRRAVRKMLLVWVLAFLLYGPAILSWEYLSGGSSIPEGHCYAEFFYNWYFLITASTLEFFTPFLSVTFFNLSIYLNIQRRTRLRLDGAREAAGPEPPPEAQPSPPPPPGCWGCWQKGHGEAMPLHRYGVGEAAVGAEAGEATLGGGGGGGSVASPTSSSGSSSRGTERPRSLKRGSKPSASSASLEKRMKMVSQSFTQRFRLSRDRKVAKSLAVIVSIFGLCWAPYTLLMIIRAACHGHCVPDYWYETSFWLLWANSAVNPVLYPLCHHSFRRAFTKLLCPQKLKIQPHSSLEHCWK

Ki [1, 5]: 38 nM
H1 Ki, value given in % (human H1 (H1-CHO cells)): 0%
Compound: O=C(c1cnc2ccccc2c1)N1CCC(Cc2c[nH]cn2)CC1 [Formula 19]
% Inhibition of neutrophilic cellular influx into BAL in response to LPS challenge [2]: 71.6%
% Inhibition of total cellular influx into BAL in response to LPS challenge [2]: 64.5%

Ki [1, 5]: 290 nM
Compound: c1nc(CC2CCN(CCCOc3ccc(CN4CCCCC4)cc3)CC2)c[nH]1 [Formula 24]

Ki [1, 5]: 870 nM
Compound: C/C(=C\C(=O)Nc1ccc(Cl)cc1)c1ccc(Cc2c[nH]cn2)cc1 [Formula 33]

Compound: COc1ccc([C@]2(C#N)CC[C@@H](C(=O)O)CC2)cc1OC1CCCC1 [SB207499, c4-cyano-4-(3-cyclopentyloxy-4-methoxy-phenyl)-r-1-cyclohexanecarboxylic acid, reference compound]
% Inhibition of neutrophilic cellular influx into BAL in response to LPS challenge [2]: 68.7%
% Inhibition of total cellular influx into BAL in response to LPS challenge [2]: 61.2%
Cells (neutrophils or total cells) counted in BAL of LPS-challenged rats compared with rats treated with a blank [2]: Fewer cells

Ki [3, 6]: > 10 µM
Compound: CN(C)CCC(c1ccc(Cl)cc1)c1ccccn1 (stereo not shown) [Chlorpheniramine]

Compound: NC(=NCc1ccc(Cl)cc1)SCCCc1cnc[nH]1 [Formula 18]
Ki [1]: 34 nM

Compound: C[C@H](N)Cc1c[nH]cn1 [(S)-α-methylhistamine]
Ki [3]: 3.4 ± 0.3 µM

Ki [1, 5]: 440 nM
Compound: c1ccc2c(c1)C1CC(CNCCCCc3c[nH]cn3)C2c2ccccc21 (stereo not shown) [Formula 29]

Ki [1, 5]: 1100 nM
H1 Ki, value given in % (human H1 (H1-CHO cells)): 0%
Compound: O=C(/C=C/c1ccc(Cc2c[nH]cn2)cc1)NCCc1ccc(Cl)cc1 [Formula 35]

Compound: NC(=NCc1ccc(Cl)cc1)SCCCc1cnc[nH]1 [Clobenpropit]
Ki [3]: 0.0072 ± 0.0005 µM

Compound: O=C(c1ccccn1)N1CCC(Cc2c[nH]cn2)CC1 [Formula 20]
Ki [1, 5]: 38 nM

Ki [1, 5]: 300 nM
Compound: O=C(CCN1CCC(Cc2c[nH]cn2)CC1)NCCc1ccc(Cl)cc1 [Formula 25]

Ki [1, 5]: 1100 nM
H1 Ki, value given in % (human H1 (H1-CHO cells)): 48%
Compound: O=C(NCCCCc1c[nH]cn1)C1(c2ccc(Cl)cc2)CCC1 [Formula 34]

Ki [1, 5]: 90 nM
Compound: CC(C)(C)CCC#C[C@@H]1C[C@H]1c1c[nH]cn1 [Formula 21]

Ki [1, 5]: 320 nM
H1 Ki, value given in % (human H1 (H1-CHO cells)): 0%
Compound: O=C(NCc1ccc(Cc2c[nH]cn2)cc1)Nc1cc(Cl)cc(Cl)c1 [Formula 26]

Ki [1, 5]: 92 nM
Compound: O=C(CCN1CCC(Cc2c[nH]cn2)CC1)Nc1cccc(Cl)c1 [Formula 22]

Ki [1, 5]: 205 nM
Compound: O=S(=O)(c1ccc(Cl)cc1)N1CCC(CCc2c[nH]cn2)C1 (stereo not shown) [Formula 23]

Compound: Nc1ncc(CN2CCC(F)(C(=O)N3CCC(n4c(-c5ccccn5)nc5cccnc54)CC3)CC2)cn1 [Formula 17]
Cells (neutrophils or total cells) counted in BAL of LPS-challenged rats compared with rats treated with a blank [2]: Fewer cells

Ki [3, 6]: > 10 µM
Compound: CN/C(=N/CCSCc1nc[nH]c1C)NC#N [Cimetidine]

Ki [1, 5]: 850 nM
H1 Ki, value given in % (human H1 (H1-CHO cells)): 32%
Compound: CC(C)(C)c1ccc(S(=O)(=O)NCCCCc2c[nH]cn2)cc1 [Formula 32]

Compound: CNCCc1c[nH]cn1 [N^α-methylhistamine]
Ki [3]: 0.063 ± 0.002 µM

Ki [1, 5]: 325 nM
Compound: CN1CCC(N(C)Cc2ccc(OCCCN3CCC(Cc4c[nH]cn4)CC3)cc2)CC1 [Formula 27]

H4 Ki column, value given in % ([1]; concentration not given): 2%
H3 Ki column, value given in % [4]: 1%
Ki (human H1 (H1-CHO cells); membrane binding, [3H]-pyrilamine): 15 nM
Compound: CC(C)(C(=O)O)c1ccc(C(=O)CCCN2CCC(OC(c3ccccc3)c3ccccc3)CC2)cc1 [Formula 36]

Compound: C[C@@H](N)Cc1c[nH]cn1 [(R)-α-methylhistamine]
Ki [3]: 0.14 ± 0.01 µM

Ki [1, 5]: 480 nM
Compound: Clc1ccc(C(CCNCCCCc2c[nH]cn2)c2ccccn2)cc1 (stereo not shown) [Formula 30]

Ki [1, 5]: 770 nM
Compound: Clc1ccc(C(=C2CCN(CCCCCc3c[nH]cn3)CC2)c2ccccn2)cc1 [Formula 31]

Ki [1, 5]: 390 nM
Compound: Clc1ccc(C(=C2CCN(CCCCc3c[nH]cn3)CC2)c2ccccn2)cc1 [Formula 28]

Ki ([3]; read-out: Ki ± SEM versus [3H]histamine binding to SP9144-transfected HEK293 cells, 18 nM [3H]-histamine, 70 μg membrane protein, Ki from IC50 by Cheng and Prusoff): 0.38 ± 0.07 µM
Compound: CN(C)CCCSC(=N)N [Dimaprit]

Ki [3]: 0.0031 ± 0.0007 µM
Compound: N=C(N)SCCc1cnc[nH]1 [Imetit]
